Laboratory results taken from PubChem BioAssay (NCI).
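Test compounds were applied to cells in 96-well plates for 48 hours at 5 doses. GI50 = concentration required for 50% inhibition of growth. TGI is the concentration that stops growth completely.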

Tests used:
Assay in all cases: inhibition of tumour cell growth, NCI panel, 48 h
LOX IMVI melanoma = system: LOX IMVI melanoma
CAKI-1 renal = system: CAKI-1 renal
SF-295 CNS = system: SF-295 CNS
A498 renal = system: A498 renal
UACC-62 melanoma = system: UACC-62 melanoma
UACC-257 melanoma = system: UACC-257 melanoma
SK-MEL-28 melanoma = system: SK-MEL-28 melanoma
OVCAR-5 ovarian = system: OVCAR-5 ovarian
HOP-18 NSCLC = system: HOP-18 NSCLC
MDA-N = system: MDA-N

Row | Compound | TGI (LOX IMVI melanoma) [µM] | TGI (CAKI-1 renal) [µM] | TGI (SF-295 CNS) [µM] | TGI (A498 renal) [µM] | TGI (UACC-62 melanoma) [µM] | TGI (UACC-257 melanoma) [µM] | TGI (SK-MEL-28 melanoma) [µM] | TGI (OVCAR-5 ovarian) [µM] | TGI (HOP-18 NSCLC) [µM] | TGI (MDA-N) [µM] | GI50 (HOP-18 NSCLC) [µM]
1 | O=C1CCCn2c3ccccc3c3ccnc1c32 | > 100 | > 46.6 | > 100 | 32.2 | 98 | > 56.1 | > 100 | > 100 | > 100 |  | 
2 | COc1ccc(/C=N/N=C(N)N)c(C(=O)O)c1OC |  | > 100 | > 100 | > 100 | > 100 | > 100 | > 100 |  | > 100 |  | 
3 | c1ccc2c3c(c(N4CCNCC4)nc2c1)CCCC3 | 27.2 | 21.9 | 45.8 | 27.6 | 30.4 | 20.6 | 31.1 | 26.9 |  | 28.3 | 
4 | O=C(OCc1ccccc1[N+](=O)[O-])N1c2ccccc2[C@@]23O[C@]24CCC[C@H]3C#C/C=C\C#C[C@H]14 | > 100 | > 100 | > 100 | > 100 | > 100 | > 100 | > 100 | > 100 |  | > 100 | 
5 | CCOC(=O)C(C(N)=O)c1nc2cc([N+](=O)[O-])ccc2nc1/C=C(\O)c1ccc(C)cc1 (configuration not stated) | 57.4 | > 100 | 43.6 | > 67.7 | > 72.3 | > 100 | > 71.1 | > 100 |  | > 100 | 
6 | O=C(NCCc1ccc(F)cc1)c1cc(/C=C/c2cc(O)ccc2O)ccc1O | 14 | 15 | 36.2 | 14.1 | 4.85 | 6.52 | > 25.3 | 22.3 |  | 9.59 | 
7 | COC(=O)/C=C1\C(=O)N(C(C)=O)c2ccccc21 | 18.7 | 0.184 | > 55.2 | 20 | 18.4 | 22.2 | 32.7 | 59.1 |  | 25.2 | 
8 | CC1CCC(O)/C=C/C(=O)OC(C)C(O)/C=C/C(=O)O1 (configuration not stated) | > 100 | > 100 | > 100 | > 100 | > 100 | > 100 | > 100 | > 100 |  | > 100 | 
9 | Nc1c2c(nc3ccccc13)-c1ccccc1CCC2 | 25.3 | 32.5 | 19.1 | 21.4 | 22.7 | 19.4 | 27.3 | 30 |  | 25.9 | 
10 | Cc1cc([C@H](C#N)c2nc3ccccc3s2)nc(Cl)n1 | 10.4 | 31 | > 100 | 31.3 | 20.5 | 22.4 | 39.1 | > 100 |  | > 100 | 
11 | N#CCCN(CCN(CCN(C(=O)Nc1ccccc1)c1ccccc1)C(=O)Nc1ccccc1)C(=O)Nc1ccccc1 | > 100 | > 100 | > 100 | > 100 | > 100 | > 100 | > 100 | > 100 |  | > 100 | 
12 | CCCCc1ccc(Nc2nc(N)c3[nH]cnc3n2)cc1 | 33.3 | 37.7 | 68.8 | 24.2 | 35.3 | 47.4 | 44.1 | 73.5 |  | 32.6 | 
13 | COc1ccc(NC(=O)c2cc(NC(=O)/C=C/c3ccccc3)c(OC)c(OC)c2)cc1 | > 100 | > 100 | > 100 | > 100 | > 100 | > 100 | > 100 | > 100 |  | 16.5 | 
14 | NC1=CN2c3ccccc3N(CC(=O)N3CCOCC3)C2C=C1 (configuration not stated) | > 100 | > 100 | > 100 | > 100 | > 100 | > 100 | > 100 | > 100 |  | > 100 | 
15 | CN(C)CCNc1ccccn1 | > 100 | > 100 | > 100 | > 100 | > 100 | > 100 | > 100 | > 100 |  | > 100 | 
16 | N.N.NCCCCN.O=C([O-])CCl.O=C([O-])CCl.O=C([O-])CCl.O=C([O-])CCl.[Pt+4].[Pt+4] | > 50 |  | > 50 | > 50 | > 50 | > 50 | > 50 | > 50 | > 50 |  | > 50
